From patent US20060093578A1, “Method and composition for treating multiple sclerosis” (Kyorin Pharmaceutical Co., Ltd., priority 2004, published 2006)

Key:
[1] = tested on: IL-12 p70 production by microglia; assay: IL-12 p70 production by LPS + IFNγ-stimulated microglia (ELISA); type: cell-based, C57BL/6J mice; conditions: for IL-12 p70: mean ± SD (n = 9); for IL-12 production by microglia: LPS and IFNγ stimulation, graded doses (FIG. 1, FIG. 9A)
Experimental: Samples used for the experiments were prepared as described below. […] The cultures were maintained with Dulbecco's modified Eagle's minimum essential medium supplemented with 10% fetal calf serum, 5 μg/ml bovine insulin, and 0.2% glucose.
The supernatant was then collected and stored at −70° C. until assessed. From the remaining cells, total RNA was extracted, following the guanidinium thiocyanate method (RNeasy Mini Kit;QIAGEN). The cDNA encoding mouse TNFα, IL-1β, IL-6, iNOS (inducible nitric oxide synthetase), and IL-12, was generated by reverse transcription-polymerase chain reaction (RT-PCR) using Superscript II (INVITROGEN), and Ampli Taq DNA polymerase (APPLIED BIOSYSTEMS) with the specific primers shown in Table 1.
Cytokine production was measured with an ELISA kit specific for IL1, IL-6, TNFα, and IL-12 p70 (TECHNE Corp. MN). NO production was determined by Griess reaction. Briefly, a 50 μl aliquot of supernatants were mixed with an equal volume of Griess reagent (0.1% N-ethylenediarnine dihydrochloride, 1% sulfanilamide, and 2.5% phosphoric acid) and incubated for 15 minutes at room temperature, and the absorbance was read at 540 nm on a microtiter plate reader. Nitrite concentrations were calculated from a standard curve of NaNO2 (Yoshikawa M, Suzumura A, Tamaru T, et al. “Effects of phosphodiesterase inhibitors on microglia.” Multiple Scler 1999;5: 126-133, the contents of which are hereby incorporated by reference in their entirety).

[2] = tested on: peripheral blood mononuclear cells; conditions: with IFNβ, synergistically; PBMC from patients with active MS; clinical trial; cited from earlier work
[3] = microglia + LPS (1 μg/mL) + IFNγ (1 ng/mL) + IFNβ 10^2 U/mL, agent 1 μM
[4] = microglia + LPS (1 μg/mL) + IFNγ (1 ng/mL) + IFNβ 10^2 U/mL, agent 10 μM
[5] = microglia + LPS (1 μg/mL) + IFNγ (1 ng/mL) + IFNβ 10^2 U/mL, agent 100 μM, detection limit 7 pg/mL
[6] = microglia + LPS (1 μg/mL) + IFNγ (1 ng/mL), agent 1 μM, stimulated control 118 ± 13
[7] = microglia + LPS (1 μg/mL) + IFNγ (1 ng/mL), agent 10 μM, stimulated control 118 ± 13
[8] = microglia + LPS (1 μg/mL) + IFNγ (1 ng/mL), agent 100 μM, detection limit 7 pg/mL

| Structure (SMILES) | IL-12 p70 [1, 3] [pg/mL] | IL-12 p70 [1, 4] [pg/mL] | IL-12 p70 [1, 5] | IL-12 p70 [1, 6] [pg/mL] | IL-12 p70 [1, 7] [pg/mL] | IL-12 p70 [1, 8] | IL-12 production by microglia [1] | anti-inflammatory cytokine IL-10 [2] | production of inflammatory cytokines [2] |
| --- | --- | --- | --- | --- | --- | --- | --- | --- | --- |
| CC(C)C(=O)c1c(C(C)C)nn2ccccc12 [Ibudilast, ibudilast] | 48 ± 11 | 43 ± 6 | <7^a** pg/mL | 53 ± 4 | 48 ± 5 | <7^a* pg/mL |  |  |  |
| Cc1[nH]c(=O)c(C#N)cc1-c1ccc2nccn2c1 [Orprinone, orprinone] | 67 ± 14 | 44 ± 7 | 40 ± 9 pg/mL | 107 ± 20 | 88 ± 14 | 32 ± 11 pg/mL | dose-dependently suppressed |  |  |
| CCCC(=O)Nc1ncnc2c1ncn2[C@@H]1O[C@@H]2COP(=O)(O)O[C@H]2[C@H]1OC(=O)CCC [dbcAMP, dibutyryl cAMP] |  |  |  | 122 ± 23 | 59 ± 18 | 23 ± 8 pg/mL | dose-dependently suppressed |  |  |
| C=C[C@@]1(C)CC(=O)[C@]2(O)[C@@]3(C)[C@@H](O)CCC(C)(C)[C@@H]3[C@H](O)[C@H](OC(C)=O)[C@@]2(C)O1 [forskoline, forskolin] | 47 ± 10 | 34 ± 6 | <7^a** pg/mL |  |  |  |  |  |  |
| CC(=O)CCCCn1c(=O)c2c(ncn2C)n(C)c1=O [pentoxifylline] |  |  |  |  |  |  |  | up-regulate | reduce |
